US6362394B1, “Juvenile hormone or one of its agonists as a chemical ligand to control gene expression in plants by receptor mediated transactivation” (Syngenta Participations AG, priority 1995, dated 2002)

Experiments:
[1] = target: T1, receptor polypeptides GAL4-EcR^330-825-C1 and USP-VP16 (Drosophila melanogaster, UniProt P20153+P34021); test: Tebufenozide-induced activation by GAL4-EcR-C1 + USP-VP16 of a luciferase target cassette in maize cells, and its block by methoprene; format: cell-based; settings: approximately 48 hours
T1 construct: expressed in transfected cells; host or cells: maize suspension cells, microprojectile bombardment
From the text: (§1) Control of target polypeptide expression by various receptor polypeptides, including the chimeric receptor polypeptides of the present invention, can be shown by simultaneously transforming plant cells with the necessary gene constructions using high velocity microprojectile bombardment, followed by biochemical assay for the presence of the target polypeptide. The necessary gene constructions comprise a USP receptor expression cassette which encodes a USP receptor polypeptide (FIG. 1). Optionally, the USP receptor expression cassette may be transformed along with a secondary receptor expression cassette which encodes a receptor polypeptide distinct from USP (FIGS. 2 and 3). In addition, a target expression cassette which encodes a target polypeptide is also necessary.
(§2) The expression cassettes were simultaneously delivered to maize suspension cells cultured in liquid N6 medium (Chu et al. Scientia Sinica XVIII:659-668, 1975) by high velocity microprojectile bombardment using standard techniques of DNA precipation onto microprojectiles and high velocity bombardment driven by compressed helium (PDS1000/He, BioRad, Hercules, Calif.). Transfected cells were incubated in liquid suspension in the presence of the appropriate chemical ligand for approximately 48 hours in N6 media. After incubation, the transformed cells were harvested then homogenized at 0° C. Debris in the extracts was removed by centrifugation at 10,000 g at 4° C. for 5 minutes.
(§3) Target polypeptide expression was detected by assaying the extract for the presence of the product encoded by the target expression cassette. One commonly used coding sequence for the target polypeptide when testing control of expression by the receptor polypeptides in the presence of a chemical ligand is firefly luciferase. The activity of firefly luciferase is determined by quantitating the chemiluminescence produced by luciferase catalyzed phosphorylation of luciferin using ATP as substrate (Promega Luciferase Kit, cat. no. E1500), using an Analytical Luminescence Model 2001 luminometer. […]

[2] = target: T2, receptor polypeptide VP16-USP (Drosophila melanogaster, UniProt P20153); test: VP16-USP activation of a direct repeat luciferase target cassette in transformed maize cells; format: cell-based; set-up: expressed in transfected cells; settings: 35S/VP16-USP, target (DR3)3-Bz1TATA/Luc, 10 μM ligand, 48 hours, no ligand 29,967
T2 sequence (P06492 413-490, one chain of several): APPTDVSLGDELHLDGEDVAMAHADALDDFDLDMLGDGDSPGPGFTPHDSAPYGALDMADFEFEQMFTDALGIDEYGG
From the text: as §1, with “necessary. […]” for “necessary.”
as §3, with “One commonly used coding sequence for the target polypeptide when testing control of expression by the receptor polypeptides in the presence of a chemical ligand is firefly luciferase.” left out

[3] = target: T2, receptor polypeptide VP16-USP; test: Chemical induction of luciferase in isolated leaves of transgenic Arabidopsis expressing VP16-USP with a DR-Luciferase reporter; format: cell-based; set-up: expressed in transfected cells; host or cells: transgenic Arabidopsis thaliana (Columbia), isolated leaves; Agrobacterium T-DNA construct; settings: approximately 24 hours; for Fold increase in luciferase activity: 10 μM; for Luciferase Activity: 35S/VP16-USP, 10 μM ligand in 0.1% ethanol, light units per 10 seconds per 100 μg extract protein, control 638
Description: Arabidopsis thaliana (Columbia) was transformed with an Agrobacterium vector harboring a CaMV 35S promoter and a DR-Luciferase reporter (as described in Example 13 above) by the following vacuum-infiltration procedure. Electrocompetent GV3101 Agrobacterium cells were prepared by incubating GV3101 Agrobacterium in 2×YT media at 28° C. with aeration for 24-30 hours to an OD600 of 0.5-0.7 units. Cells were chilled on ice for 10-30 minutes, and centrifuged at 5,000 RPM for 5 minutes at 4° C. The supernatant was discarded, and the cell pellet resuspended in 1 volume of ice-cold 10% glycerol. Cells were again centrifuged at 5,000 RPM for 5 minutes at 4° C. The supernatant was discarded, and the cell pellet resuspended in 0.05 volumes of ice-cold 10% glycerol. Cells were again centrifuged at 5,000 RPM for 5 minutes at 4° C. The supernatant was discarded, and the cell pellet resuspended in 0.02 volume of ice-cold 10% glycerol. Cells were again centrifuged at 5,000 RPM for 5 minutes at 4° C. The supernatant was discarded, and the cell pellet resuspended 0.02 volume of ice-cold 10% glycerol. Cells were again centrifuged at 5,000 RPM for 5 minutes at 4° C. The supernatant was discarded, and the cell pellet resuspended in 0.01 volume of ice-cold 10% glycerol. Cells were aliquoted in […] amounts per 1.5 ml microfuge tubes, quick-frozen in liquid N2, and stored at −80° C. Electrocompetent cells were used before 6 weeks storage at −80° C. Frozen electrocompetent cells were thawed on ice and 40 ml transfered to a pre-chilled 1.5 ml microfuge tube. 1 ml of the appropriate Agrobacterium plasmid DNA (2-10 ng) was added to the thawed cells and mixed on ice. The cell/plasmid mixture was transfered to a prechilled 0.2 cm Bio-Rad electroporation cuvette, and electroporated at 2.0 KVolts, 600 Ohms, 25 μFarad, with a 6 msec time constant. 1 †ml of 2×YT media was added to the electroporation cuvette, the cell/plasmid solution was mixed with a pipet tip, and the contents transfered to a fresh 1.5 ml microfuge tube. Cells were then incubated at […] for 1 hour on a shaker at 200 RPM. The cells were centrifuged down for 2 minutes at a setting of 6 in an Eppendorph adjustable-speed microfuge, the supernatant decanted, and the cell pellet resuspended in the remaining liquid. Resuspended cells were spread on an LB media plate with the appropriate antibiotic. Plates were incubated at 28-30° C. for […]. A 50 ml LB culture was innoculated with a single transformed colony in a 250 ml flask with Rifampicin at 100 μg/ml and Gentomycin at 25 μg/ml and Kanamycin at 100 μg/ml. The culture was incubated for 24-36 hours at 28° C. at 250 RPM and 10 ml of the culture was used to innoculate 500 ml LB+antibiotics in a 2-liter flask. This culture was incubated overnight at 28° C. with shaking at 250 RPM. […]

[4] = target: T3, receptor polypeptides GAL4-EcR^330-825-C1 and USP-VP16 (Drosophila melanogaster, UniProt P20153); test: Reversal by juvenile hormone agonists of GAL4-EcR-C1 + USP-VP16 activation of a luciferase target cassette in transformed maize cells; format: cell-based; settings: 10 μM ligand, approximately 48 hours
T3 construct: expressed in transfected cells; host or cells: maize suspension cells, microprojectile bombardment
T3 sequence (P06492 411-490, one chain of several): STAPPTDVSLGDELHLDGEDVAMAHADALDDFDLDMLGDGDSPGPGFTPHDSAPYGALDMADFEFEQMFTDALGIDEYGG
From the text: as §1, §2, §3

[5] = target: T4, RXRα (Homo sapiens, UniProt P19793); settings: insect and mammalian cells; cited from earlier work
T4 construct: host or cells: insect and mammalian cells (as reported by Harmon et al.)
T4 sequence (P19793 1-462): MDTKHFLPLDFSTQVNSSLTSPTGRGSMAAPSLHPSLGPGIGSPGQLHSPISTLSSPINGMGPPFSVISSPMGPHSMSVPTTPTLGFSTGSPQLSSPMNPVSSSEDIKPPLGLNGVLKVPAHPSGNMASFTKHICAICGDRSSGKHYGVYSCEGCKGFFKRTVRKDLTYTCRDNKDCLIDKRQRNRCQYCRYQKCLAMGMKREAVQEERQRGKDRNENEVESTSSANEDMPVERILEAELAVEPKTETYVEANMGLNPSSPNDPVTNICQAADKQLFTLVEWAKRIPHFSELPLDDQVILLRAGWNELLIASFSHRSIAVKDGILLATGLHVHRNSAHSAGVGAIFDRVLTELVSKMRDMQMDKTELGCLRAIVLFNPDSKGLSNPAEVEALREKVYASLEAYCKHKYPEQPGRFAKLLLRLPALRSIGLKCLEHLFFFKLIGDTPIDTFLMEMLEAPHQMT

[6] = target: T5, USP (Drosophila melanogaster, UniProt P20153); settings: Drosophila cell-culture assays; conditions in which RXR is responsive; cited from earlier work
T5 construct: host or cells: Drosophila cell culture (as reported by Oro et al. and Harmon et al.)
T5 sequence (P20153 1-508): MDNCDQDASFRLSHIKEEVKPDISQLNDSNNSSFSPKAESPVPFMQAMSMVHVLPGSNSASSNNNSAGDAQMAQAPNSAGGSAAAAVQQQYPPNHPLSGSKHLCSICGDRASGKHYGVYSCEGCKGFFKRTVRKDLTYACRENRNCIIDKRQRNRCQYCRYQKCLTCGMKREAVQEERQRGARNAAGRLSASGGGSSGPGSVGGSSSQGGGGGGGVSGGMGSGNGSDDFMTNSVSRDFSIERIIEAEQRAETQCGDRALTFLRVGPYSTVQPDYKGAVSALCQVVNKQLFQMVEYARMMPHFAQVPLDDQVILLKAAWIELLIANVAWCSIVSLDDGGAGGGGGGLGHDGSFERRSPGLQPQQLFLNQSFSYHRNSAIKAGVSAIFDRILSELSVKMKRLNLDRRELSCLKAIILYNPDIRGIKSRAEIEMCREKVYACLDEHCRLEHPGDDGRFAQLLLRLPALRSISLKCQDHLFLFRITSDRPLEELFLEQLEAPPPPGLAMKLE

[7] = target: USP-VP16 chimeric receptor polypeptide (Drosophila; herpes simplex virus) (UniProt P20153); test: cell-based or functional assay
[8] = Experiment #1, 35S/GAL4-EcR^330-825-C1 + 35S/USP-VP16, target (GAL4b.s.)10-Bz1TATA/Luc, no ligand 277,862

COC(C)(C)CCC[C@H](C)C/C=C/C(C)=C/C(=O)OC(C)C (racemic) [Methoprene]
Effect on tebufenozide-induced activation of luciferase gene expression ([1]; 10 μM methoprene with 10 μM tebufenozide): completely blocked | Luciferase Activity [2]: 485,458 light units | Fold increase in luciferase activity [3]: 25 fold | Luciferase Activity [3]: 15,790 light units | Luciferase Activity [4, 8]: 14,786 light units | Luciferase Activity ([4]; Experiment #2, 35S/GAL4-EcR^330-825-C1 + 35S/USP-VP16, target (GAL4b.s.)10-Bz1TATA/Luc, no ligand 178,092): 5,730 light units | RXRα-mediated transcriptional activation of a recombinant reporter gene [5]: transcriptionally activate

CCOC(=O)NCCOc1ccc(Oc2ccccc2)cc1 [Fenoxycarb, ethyl [2-(4-phenoxyphenoxy)ethyl]carbamate]
Fold increase in luciferase activity [3]: 6.2 fold | Luciferase Activity [3]: 3,991 light units | Luciferase Activity [4, 8]: 77,418 light units

CCc1ccc(C(=O)NN(C(=O)c2cc(C)cc(C)c2)C(C)(C)C)cc1 [Tebufenozide]
Tebufenozide-induced activation of luciferase gene expression, fold increase when used alone ([1]; 10 μM): approximately 6 fold | Luciferase Activity ([1]; 35S/GAL4-EcR^330-825-C1 + 35S/USP-VP16, target (GAL4b.s.)10-Bz1TATA/Luc, 10 μM each ligand, no ligand 178,092): 908,912 light units

COC(C)(C)CCCC(C)C/C=C/C(C)=C/C(=O)O (centres unmarked) [methoprene acid]
Activation / response of USP [6]: does not respond | RXRα-mediated transcriptional activation of a recombinant reporter gene [5]: transcriptionally activate

GAL4-EcR^330-825-C1 chimeric receptor polypeptide (from UniProt P04386 1-147; P34021 330-825; P10290 219-273)
Luciferase Activity (light units) of the (GAL4b.s.)10-Bz1TATA/Luc reporter in maize cells, Experiment #1, no chemical ligand [7]: 278000 light units | Luciferase Activity (light units) of the (GAL4b.s.)10-Bz1TATA/Luc reporter in maize cells, Experiment #1, with 10 uM Fenoxycarb [7]: 77400 light units | Luciferase Activity (light units) of the (GAL4b.s.)10-Bz1TATA/Luc reporter in maize cells, Experiment #1, with 10 uM Methoprene [7]: 14800 light units | Luciferase Activity (light units) of the (GAL4b.s.)10-Bz1TATA/Luc reporter in maize cells, Experiment #2, no chemical ligand [7]: 178000 light units | Luciferase Activity (light units) of the (GAL4b.s.)10-Bz1TATA/Luc reporter in maize cells, Experiment #2, with 10 uM Methoprene [7]: 5730 light units | Luciferase Activity (light units) of the (GAL4b.s.)10-Bz1TATA/Luc reporter in maize cells, with 10 uM Tebufenozide [7]: 909000 light units | Luciferase Activity (light units) of the (GAL4b.s.)10-Bz1TATA/Luc reporter in maize cells, with 10 uM Tebufenozide + 10 uM Methoprene [7]: 160000 light units | level of tebufenozide-induced activation of luciferase gene expression (fold increase, tebufenozide alone) [7]: 6 fold

Juvenile hormone
RXRα-mediated transcriptional activation of a recombinant reporter gene [5]: does not induce
